# Data taken from patent US10864212B2, “Compositions and methods for treating retinal degradation” (University of Kentucky Research Foundation, priority 2013, dated 2020).
# “Also recorded” adds a separate entry of the source.
# Tests used:
# Caspase-1 [1] = assay: Western blot of Caspase-1 activation in primary human RPE cells transfected with Alu RNA; type: cell-based; conditions: for Caspase-1 maturation caused by Alu RNA: 24 hours after Alu administration, 50-100 uM, FIG. 7; for Caspase-1 activation / cleavage (p20) induced by Alu RNA: concentration not given
# Experimental: The bottom row is a vinculin loading control. […]
# FIG. 7 is a Western blot showing that Alu RNA causes Caspase-1 maturation in primary human RPE cells at 24 hours after Alu administration (top, middle lane, lower band), which is blocked with co-treatment with azidothymidine (AZT), cordycepin, and abacavir (ABC) (50-100 uM; lanes 3-8 from left). The loading control vinculin is shown on the bottom.
# FIG. 21 is a Western blot of Caspase-1 activation (p20 subunit) in primary human RPE cells transfected with Alu RNA±me-d4T.
# FIG. 35 is a Western blot of Caspase-1 activation in human RPE cells transfected with Alu RNA±NRTIs (3TC, AZT, ABC).
# The bottom row in FIG. 5 is a vinculin loading control. […]
# Next, FIG. 7 provides evidence of AZT, cordycepin, and abacavir inhibition of inflammasome activation by Alu RNA. Indeed, Alu RNA causes NLRP3 inflammasome activation, which is marked by processing of the enzyme Caspase 1. FIG. 7 is a Western blot showing that Alu RNA causes Caspase-1 maturation in primary human RPE cells at 24 hours after Alu administration (top, lane 2, lower band), which is blocked with co-treatment with azidothymidine (AZT), cordycepin, and abacavir (ABC) (50-100 uM; Lanes 3-8). Again, the loading control vinculin is shown on the bottom.
# human P2X7 receptor = biological target: T1, human P2X7 receptor (Homo sapiens, UniProt Q99572); assay: bzATP-induced YO-PRO-1 dye uptake in HEK293 cells stably expressing the human P2X7 receptor; type: cell-based
# T1 construct: expressed in transfected cells
# T1 sequence (Q99572 1-595): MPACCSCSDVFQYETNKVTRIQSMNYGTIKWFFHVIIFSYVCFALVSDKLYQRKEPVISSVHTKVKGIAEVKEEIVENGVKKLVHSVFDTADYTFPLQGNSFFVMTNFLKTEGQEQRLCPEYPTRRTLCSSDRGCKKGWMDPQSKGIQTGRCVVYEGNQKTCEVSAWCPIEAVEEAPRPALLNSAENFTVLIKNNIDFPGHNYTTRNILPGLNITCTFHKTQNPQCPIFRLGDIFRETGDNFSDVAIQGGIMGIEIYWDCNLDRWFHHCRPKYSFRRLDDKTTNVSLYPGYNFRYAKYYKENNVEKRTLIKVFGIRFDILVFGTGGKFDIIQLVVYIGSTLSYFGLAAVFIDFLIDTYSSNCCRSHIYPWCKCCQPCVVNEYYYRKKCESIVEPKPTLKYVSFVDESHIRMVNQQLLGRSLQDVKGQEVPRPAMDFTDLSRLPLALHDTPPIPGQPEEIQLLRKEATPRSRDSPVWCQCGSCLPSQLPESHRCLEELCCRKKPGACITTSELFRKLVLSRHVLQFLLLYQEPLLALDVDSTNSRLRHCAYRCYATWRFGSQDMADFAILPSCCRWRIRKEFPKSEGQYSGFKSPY
# From the text: Finally, P2X7 activation is associated with the formation of a large pore that is permeable to molecules of up to ˜1000 Da (Adinolfi et al., 2005; Cheewatrakoolpong et al., 2005; Surprenant et al., 1996).
# RPE degeneration = RPE degeneration in mice after sub-retinal injection of a plasmid expressing Alu RNA, systemic drug administration; type: in vivo, mouse
# From the text: FIG. 24, top row, provides flat mounts stained for zonula occludens-1 (ZO-1; red), bottom row. Degeneration is outlined if FIG. 24 by blue arrowheads. Representative images of n=4 are shown.
# FIG. 36 and FIG. 37 include fundus photographs: top row; flat mounts stained for zonula occludens-1 (ZO-1; red), bottom row. Degeneration is outlined by blue arrowheads. Scale bars, 50 μm.
# [2] = test system: Raji TK^+ and Raji TK^− cells; assay: Phosphorylation of AZT to AZT-triphosphate in Raji TK+ and TK- cells (LC-MS); type: in vitro ADME; conditions: FIG. 40, 50
# From the text: FIG. 50 is a standard curve of AZT-TP standards (black circle).
# (§1) To determine whether LPS/ATP-induced inflammasome activation can be inhibited without RT inhibition, the present inventors utilized thymidine kinase-deficient (Raji/TK^−) and -expressing (Raji/TK^+) cells (Balzarini et al., 1989). After addition of AZT, […], but not TK^− cells, the present inventors produced AZT-triphosphate (AZT-TP), the AZT metabolite required for RT inhibition (FIG. 40; FIG. 46, FIG. 47, FIG. 48, FIG. 49, FIG. 50).
# FIG. 50 is a standard curve of AZT-TP standards (black circle). […] FIG. 50 is representative of two experiments.
# IL-1 beta [3] = assay: LPS/ATP-induced IL-1 beta activation in Raji TK- and TK+ cells (Western blot of cell lysates); type: cell-based; conditions: FIG. 41
# From the text: as §1
# (§2) FIGS. 38-41 illustrate that NRTIs block LPS/ATP-induced inflammasome activation. […] Representative images of n=3-4 experiments are provided in each of FIGS. 38-41.
# Caspase-1 [4] = assay: LPS/ATP-induced Caspase-1 activation in mouse bone marrow-derived macrophages (Western blot); type: cell-based; conditions: mouse bone marrow-derived macrophages, supernatants; 100 uM; FIG. 9
# From the text: (§3) To produce FIG. 9, cell culture supernatants were collected after (i) no treatment, (ii) LPS treatment, or (iii) LPS/ATP treatment of mouse bone marrow-derived macrophages and run on Western blotting probing with antibodies for Caspase-1 and IL-18.
# Further, the present inventors also tested whether NRTIs blocked inflammasome activation by LPS/ATP, which is not known to signal via reverse transcriptase (Mariathasan et al., 2004; Mariathasan et al., 2006; Martinon et al., 2002).
# as §2
# IL-18 = assay: LPS/ATP-induced IL-18 maturation in mouse bone marrow-derived macrophages (Western blot); type: cell-based; conditions: supernatants, 100 uM, FIG. 9
# From the text: as §3
# IL-1 beta [5] = assay: MSU-induced IL-1 beta secretion from PMA-differentiated THP-1 monocytes (ELISA); type: cell-based, human; conditions: co-administration at 25-1000 uM, FIG. 11, 12
# From the text: Human THP-1 monocytes were differentiated into macrophages with PMA.
# To illustrate this, human THP-1 monocytes were differentiated into macrophages with PMA. Treatment with MSU increased IL-1 beta secretion compared to non-treated cells.
# [6] = test system: GFP-expressing lentivirus; assay: Replication of a GFP-expressing lentivirus in HeLa cells; type: cell-based; conditions: FIG. 22
# From the text: The present disclosure further provides the results of additional experiments in FIG. 21-FIG. 23.
compound,measurement,setting,value
"Cc1cn([C@H]2C[C@H](N=[N+]=[N-])[C@@H](CO)O2)c(=O)[nH]c1=O [AZT, 3′-azido-2′,3′-dideoxythymidine]",Caspase-1 maturation caused by Alu RNA,Caspase-1 [1],blocked
same,Caspase-1 activation / cleavage (p20) induced by Alu RNA,"Caspase-1 [1]; FIG. 21, 34, 35, 51-53",block Caspase 1 activation by Alu RNA; also recorded: block Caspase-1 cleavage induced by Alu RNA
same,P2X7-dependent uptake of YO-PRO1 after addition of bzATP,"human P2X7 receptor; human P2X7-overexpressing HEK293 stable cell line, concentration not given",inhibited P2X7-dependent uptake of the fluorescent dye YO-PRO1
same,RPE degeneration caused by pAlu,"RPE degeneration; intraperitoneal administration of AZT, FIG. 37",prevent RPE degeneration; also recorded: prevented
same,Phosphorylation of AZT to AZT-triphosphate (AZT-TP),[2]; Raji TK^+ cells,produced AZT-TP; also recorded: phosphorylate AZT to AZT-triphosphate (AZT-TP)
same,Phosphorylation of AZT to AZT-triphosphate (AZT-TP),[2]; Raji TK^− (thymidine kinase-deficient) cells,is not phosphorylated; also recorded: AZT was not phosphorylated; also recorded: AZT-TP was not detectable; also recorded: but not Raji TK^− cells
same,IL-1 beta activation by LPS/ATP,IL-1 beta [3]; Raji TK^+ cells,blocks IL-1 beta activation
same,IL-1 beta activation by LPS/ATP,IL-1 beta [3]; Raji TK^− cells,still blocks LPS/ATP-induced interleukin-1 beta secretion; also recorded: still inhibited LPS/ATP-induced interleukin-1 beta maturation; also recorded: blocks IL-1 beta activation
Nc1ncnc2c1ncn2[C@@H]1O[C@H](CO)C[C@H]1O [cordycepin],Caspase-1 maturation caused by Alu RNA,Caspase-1 [1],blocked
same,Caspase-1 activation (active p20 band) induced by LPS/ATP,Caspase-1 [4],inhibit
same,IL-18 maturation induced by LPS/ATP,IL-18,inhibit
same,IL-1 beta secretion induced by MSU,IL-1 beta [5],did not significantly affect IL-1beta secretion
Clc1cccc(-c2nnnn2Cc2cccnc2)c1Cl [A438079],P2X7-mediated YO-PRO-1 dye uptake (fluorescence) induced by bzATP,"human P2X7 receptor; bzATP 100 μM, 64 μM for both drugs, p<0.05, n=12, FIG. 43",inhibited
"COC[C@@H]1C=C[C@H](n2cc(C)c(=O)[nH]c2=O)O1 [me-d4T, 5′-OCH3-d4T]",Caspase-1 activation / cleavage (p20) induced by Alu RNA,"Caspase-1 [1]; FIG. 21, 34, 35, 51-53",blocks Caspase-1 activation in human RPE cells
same,Caspase-1 activation / cleavage (p20) induced by Alu RNA,"Caspase-1 [1]; FIG. 21, 34, 35, 51-53, listed as 5′-methoxy-d4T",block Caspase 1 activation by Alu RNA
same,Replication of a GFP-expressing lentivirus,[6]; HeLa cells,does not block lentivirus replication
same,Reverse transcriptase inhibition,[6]; confirmed by lentivirus replication,does not inhibit reverse transcriptase
same,Alu-induced RPE degeneration,"RPE degeneration; me-d4T intraperitoneal injection, n=4, FIG. 24",prevents Alu-induced RPE degeneration in mice
Clc1ccc(C(c2ccc(Cl)cc2)n2cc[n+](CC(OCc3ccc(Cl)cc3Cl)c3ccc(Cl)cc3Cl)c2)cc1 (stereo not shown) [calmidazolium],Caspase-1 activation / cleavage (p20) induced by Alu RNA,"Caspase-1 [1]; FIG. 21, 34, 35, 51-53",not inhibited
